The results in this text go back to patent US5686460A, “Carbocyclic diarylmethylene derivatives, processes for their preparation and their uses in therapeutics” (Laboratoires UPSA, priority 1996, dated 1997).

The term inhibition denotes the drop in the measured response relative to a control, in per cent.

In one assay the target is T1, COX-2 (Ovis aries, UniProt P79208).
T1 construct: purified enzyme from ewe placenta; from tissue; host or cells: ewe placenta
T1 sequence (P79208 17-603): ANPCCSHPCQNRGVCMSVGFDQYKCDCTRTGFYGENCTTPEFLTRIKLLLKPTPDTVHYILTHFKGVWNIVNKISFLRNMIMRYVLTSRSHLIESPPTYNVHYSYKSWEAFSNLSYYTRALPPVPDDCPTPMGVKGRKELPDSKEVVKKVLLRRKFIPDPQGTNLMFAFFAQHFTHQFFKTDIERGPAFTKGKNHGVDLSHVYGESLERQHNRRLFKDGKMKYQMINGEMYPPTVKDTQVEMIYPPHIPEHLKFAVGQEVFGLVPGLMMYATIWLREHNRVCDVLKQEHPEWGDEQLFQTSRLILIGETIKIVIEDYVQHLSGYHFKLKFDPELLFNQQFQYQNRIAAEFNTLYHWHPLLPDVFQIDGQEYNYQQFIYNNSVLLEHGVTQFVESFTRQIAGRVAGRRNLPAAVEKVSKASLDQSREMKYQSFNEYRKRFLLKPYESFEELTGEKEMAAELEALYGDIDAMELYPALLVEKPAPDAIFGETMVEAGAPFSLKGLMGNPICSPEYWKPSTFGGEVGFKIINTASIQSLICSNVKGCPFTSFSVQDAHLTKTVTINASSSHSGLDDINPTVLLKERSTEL
In words: Inhibition of the COX-2 enzymatic activity (PGE2 determined by EIA). The note with it: arachidonic acid 4 μM, mean±standard deviations of 4 determinations; for inhibition at 10 µM: 10^-5 M; for inhibition at 0.1 µM: 10^-7 M. Format: biochemical, ewe. The procedure:
(§1) Inhibition of the COX-1 and COX-2 enzymatic activities The molecule studied is preincubated for 10 minutes at 25° C. with 2 U of COX-1 (purified enzyme from ram seminal vesicles) or 1 U of COX-2 (purified enzyme from ewe placenta). Arachidonic acid (6 μM for COX-1, 4 μM for COX-2) is added to the reaction medium and incubation is carried out for 5 minutes at 25° C. When incubation has ended, the enzymatic reaction is stopped by the addition of 1N HCl and the PGE2 produced is determined by EIA. The results are expressed as the percentage inhibition of the COX-1 and COX-2 enzymatic activities and correspond to mean±standard deviations of the average of 4 determinations.

A further assay has as its system COX-1. Put plainly: Inhibition of the COX-1 enzymatic activity (PGE2 determined by EIA). The class given is biochemical, ram. As to conditions: 10^-5 M; arachidonic acid 6 μM; mean±standard deviations of 4 determinations. As to the method: as §1
A further assay deals with kaolin arthritis. In words: kaolin arthritis test (analgesic activity). The note with it: rat, oral, 100 mg/kg, 5 h 30 after administration, n=10 animals per dose. Format: in vivo. As to the method:
(§2) The anti-inflammatory activity of the compounds of the Examples was evaluated by the carrageenin edema method and the analgesic activity was evaluated by the kaolin arthritis method.
The analgesic activity is evaluated in the rat by the kaolin arthritis test. Thirty minutes after the intra-articular administration of 10% aqueous kaolin suspension, the product is administered orally at a rate of 1 ml/100 g (n=10 animals per dose). The percentage inhibition of the animal's pain response (grading of the gait) is calculated 5 h 30 rain after administration of the product.

The next assay concerns carrageenin edema. Put plainly: carrageenin edema test (anti-inflammatory activity). Format: in vivo. The note with it: rat, oral, 100 mg/kg, 3 hours, n=6 animals per dose. As to the method: as §2
Anti-inflammatory activity:
The anti-inflammatory activity is evaluated in the rat by the carrageenin edema test. The product is administered orally at a rate of 2.5 ml/100 g (n=6 animals per dose) 2 h 30 rain after oral hyperhydration (2.5 ml/100 g). One hour after administration of the product, the edema is induced by the plantar subcutaneous injection of 2% aqueous carrageenin solution. The percentage inhibition of the volume of the edema is calculated after 3 hours by measurement of the volume of the paw with a mercury plethysmograph.
(In general: Carrageenan injected into the paw causes an acute inflammation.)

On COX-2, `CS(=O)(=O)c1ccc(C(=C2CCCC2)c2ccc(F)cc2)cc1` [Example 3, 4-[(Cyclopentylidene)(4-fluorophenyl)methyl]methylsulfonylbenzene] yielded an inhibition at 10 µM of 66 ± 4% and an inhibition at 0.1 µM of 21 ± 4%.
At COX-2, `CS(=O)(=O)c1ccc(C(=C2CCCC2)c2ccc(Cl)nc2)cc1` [Example 6, 2-Chloro-5-[(cyclopentylidene)(4-methylsulfonylphenyl)methyl]-pyridine] displayed an inhibition at 10 µM of 65 ± 2% and an inhibition at 0.1 µM of 18 ± 8%. Further, the “% inhibition of the COX-1 activity” value in the assay with COX-1 is 0 ± 0%. Also, the “Analgesic activity % inhibition (of the animal's pain response, grading of the gait)” value with kaolin arthritis stood at 55.0 ± 15.7%. In the assay with carrageenin edema, the “Anti-inflammatory activity % inhibition (of the volume of the edema)” value is given as 45.8 ± 9.8%.
On to `CS(=O)(=O)c1ccc(C(=C2C=CC=C2)c2ccc(F)cc2)cc1` [Example 12, 4-[(Cyclopenta-2,4-dienylidene)(4-fluorophenyl)methyl]methyl-sulfonylbenzene], for which 10 µM produced 57 ± 3% inhibition against COX-2.
